Results as given in patent US8586611B2 (priority 2005, dated 2013).
Where two headings read alike, the source gives them in different places.

What was measured:
Format in all cases: in vivo
[1] = test system: Erysiphe graminis f. sp. tritici; assay: Test E: wheat powdery mildew, spray the day before inoculation (disease rating, 100 = 100% disease control)
Source text: (§1) The test compounds were first dissolved in acetone in an amount equal to 3% of the final volume and then suspended at the desired concentration (in ppm) in acetone and purified water (50/50 mix by volume) containing 250 ppm of the surfactant Trem® 014 (polyhydric alcohol esters). The resulting test suspensions were then used in tests A-E. Spraying a 200 ppm test suspension to the point of run-off on the test plants was the equivalent of a rate of 500 g/ha.
The test suspension was sprayed to the point of run-off on wheat seedlings. The following day the seedlings were inoculated with a spore dust of Erysiphe graminis f. sp. tritici, (the causal agent of wheat powdery mildew) and incubated in a growth chamber at 20° C. for 7 days, after which disease ratings were made.
(§2) Results for Tests A-F are given in Table A. In the table, a rating of 100 indicates 100% disease control and a rating of 0 indicates no disease control (relative to the controls). A dash (-) indicates no test results.

Phytophthora infestans [2] = assay: whole plant or invertebrate; conditions: for Test C disease rating (100 = 100% disease control, 0 = no disease control): tomato late blight
Plasmopara viticola = assay: Test B: grape downy mildew, spray 24 h after inoculation (disease rating, 100 = 100% disease control)
Source text: as §1
Grape seedlings were inoculated with a spore suspension of Plasmopara viticola (the causal agent of grape downy mildew) and incubated in a saturated atmosphere at 20° C. for 24 h. After a short drying period, the test suspension was sprayed to the point of run-off on the grape seedlings and then moved to a growth chamber at 20° C. for 5 days, after which the test units were placed back into a saturated atmosphere at 20° C. for 24 h. Upon removal, disease ratings were made.
as §2

Phytophthora infestans [3] = assay: whole plant or invertebrate; conditions: for Test D disease rating (100 = 100% disease control, 0 = no disease control): tomato late blight
[4] = Blumeria graminis, topical, 168 h, spray the day before inoculation, tested at 40 ppm, read-out: Test E disease rating (100 = 100% disease control, 0 = no disease control)
[5] = Phytophthora infestans, in Solanum lycopersicum, 144 h, read-out: Test C disease rating (100 = 100% disease control, 0 = no disease control)
[6] = Plasmopara viticola, 144 h, spray 24 h after inoculation, tested at 40 ppm, read-out: Test B disease rating (100 = 100% disease control, 0 = no disease control)
[7] = Phytophthora infestans, in Solanum lycopersicum, topical, 96 h, read-out: Test D disease rating (100 = 100% disease control, 0 = no disease control)
[8] = spray the day before inoculation, tested at 40 ppm
[9] = spray the day before inoculation, compounds without asterisk (not 40 or 10 ppm)

`Cc1cc(C(F)(F)F)nn1CC(=O)N1CCC(c2nc(C(=O)N(C)[C@@H]3CCCc4ccccc43)co2)CC1` [Compound 151, N-methyl-2-[1-[[5-methyl-3-(trifluoromethyl)-1H-pyrazol-1-yl]acetyl]-4-piperidinyl]-N-[(1R)-1,2,3,4-tetrahydro-1-naphthalenyl]-4-oxazolecarboxamide] was tested, and the pest or weed control at 40 ppm [1, 4] was 0%, the pest or weed control at 40 ppm (Phytophthora infestans [2]; [5]) was 100% and the pest or weed control at 40 ppm (Plasmopara viticola; [6]) was 99%. It also gave a pest or weed control at 40 ppm (Phytophthora infestans [3]; [7]) of 99%.

`CC[C@H](c1ccccc1)N(C)C(=O)c1coc(C2CCN(C(=O)Cn3nc(C(F)(F)F)cc3C)CC2)n1` [Compound 152, N-methyl-2-[1-[[5-methyl-3-(trifluoromethyl)-1H-pyrazol-1-yl]acetyl]-4-piperidinyl]-N-[(1R)-1-phenylpropyl]-4-oxazolecarboxamide] was tested, and the pest or weed control at 40 ppm [1, 4] was 0%, the pest or weed control at 40 ppm (Phytophthora infestans [2]; [5]) was 100% and the pest or weed control at 40 ppm (Plasmopara viticola; [6]) was 99%. The pest or weed control at 40 ppm (Phytophthora infestans [3]; [7]) was 99%.

`Cc1ccc(C)c(CC(=O)N2CCC(c3nc(C(=O)N(C)[C@@H]4CCCc5ccccc54)co3)CC2)c1` [Compound 153, 2-[1-[(2,5-dimethylphenyl)acetyl]-4-piperidinyl]-N-methyl-N-[(1R)-1,2,3,4-tetrahydro-1-naphthalenyl]-4-oxazolecarboxamide] was tested, and the pest or weed control at 40 ppm [1, 4] was 0%, the pest or weed control at 40 ppm (Phytophthora infestans [2]; [5]) was 100% and the pest or weed control at 40 ppm (Plasmopara viticola; [6]) was 99%. The pest or weed control at 40 ppm (Phytophthora infestans [3]; [7]) was 98%.

`CC[C@H](c1ccccc1)N(C)C(=O)c1coc(C2CCN(C(=O)Cc3cc(C)ccc3C)CC2)n1` [Compound 154, 2-[1-[(2,5-dimethylphenyl)acetyl]-4-piperidinyl]-N-methyl-N-[(1R)-1-phenylpropyl]-4-oxazolecarboxamide] showed a pest or weed control at 40 ppm [1, 4] of 0%, a pest or weed control at 40 ppm (Phytophthora infestans [2]; [5]) of 100% and a pest or weed control at 40 ppm (Plasmopara viticola; [6]) of 99%. It also gave a pest or weed control at 40 ppm (Phytophthora infestans [3]; [7]) of 68%.

`Cc1cc(C(F)(F)F)nn1CC(=O)N1CCC(c2nc(C(=O)N(C)C3CCC(=O)c4ccccc43)cs2)CC1` (stereo not shown) [Compound 211, N-methyl-2-[1-[[5-methyl-3-(trifluoromethyl)-1H-pyrazol-1-yl]acetyl]-4-piperidinyl]-N-(1,2,3,4-tetrahydro-4-oxo-1-naphthalenyl)-4-thiazolecarboxamide] gave a pest or weed control at 40 ppm [1, 4] of 0%, a pest or weed control at 40 ppm (Phytophthora infestans [2]; [5]) of 100% and a pest or weed control at 40 ppm (Plasmopara viticola; [6]) of 99%. It also gave a pest or weed control at 40 ppm (Phytophthora infestans [3]; [7]) of 99%.

Work on `Cc1cc(C(F)(F)F)nn1CC(=O)N1CC=C(c2nc(C(=O)N(C)[C@@H]3CCCc4ccccc43)cs2)CC1` [Compound 218, N-methyl-2-[1,2,3,6-tetrahydro-1-[[5-methyl-3-(trifluoromethyl)-1H-pyrazol-1-yl]acetyl]-4-pyridinyl]-N-[(1R)-1,2,3,4-tetrahydro-1-naphthalenyl]-4-thiazolecarboxamide] yielded a pest or weed control at 40 ppm [1, 4] of 0%, a pest or weed control at 40 ppm (Phytophthora infestans [2]; [5]) of 100% and a pest or weed control at 40 ppm (Plasmopara viticola; [6]) of 91%. For the same compound, the pest or weed control at 40 ppm (Phytophthora infestans [3]; [7]) was 99%.

Work on `Cc1cc(C(F)(F)F)nn1CC(=O)N1CCN(c2nc(C(=O)N(C)[C@@H]3CCCc4ccccc43)cs2)CC1` [Compound 220, N-methyl-2-[4-[[5-methyl-3-(trifluoromethyl)-1H-pyrazol-1-yl]acetyl]-1-piperazinyl]-N-[(1R)-1,2,3,4-tetrahydro-1-naphthalenyl]-4-thiazolecarboxamide] yielded a pest or weed control at 40 ppm [1, 4] of 0%, a pest or weed control at 40 ppm (Phytophthora infestans [2]; [5]) of 100% and a pest or weed control at 40 ppm (Plasmopara viticola; [6]) of 95%. For the same compound, the pest or weed control at 40 ppm (Phytophthora infestans [3]; [7]) was 98%.

`Cc1cc(C(F)(F)F)nn1CC(=O)N1CCC(c2nc(C(=O)N(C)C3c4ccccc4CC3(C)C)cs2)CC1` (stereo not shown) [Compound 222, N-(2,3-dihydro-2,2-dimethyl-1H-inden-1-yl)-N-methyl-2-[1-[[5-methyl-3-(trifluoromethyl)-1H-pyrazol-1-yl]acetyl]-4-piperidinyl]-4-thiazolecarboxamide] was tested, and the pest or weed control at 40 ppm [1, 4] was 0%, the pest or weed control at 40 ppm (Phytophthora infestans [2]; [5]) was 100% and the pest or weed control at 40 ppm (Plasmopara viticola; [6]) was 100%. The pest or weed control at 40 ppm (Phytophthora infestans [3]; [7]) was 99%.

Work on `Cc1cc(C(F)(F)F)nn1CC(=O)N1CCC(c2nc(C(=O)N(C)C3c4ccccc4CC3C)cs2)CC1` (stereo not shown) [Compound 226, N-(2,3-dihydro-2-methyl-1H-inden-1-yl)-N-methyl-2-[1-[[5-methyl-3-(trifluoromethyl)-1H-pyrazol-1-yl]acetyl]-4-piperidinyl]-4-thiazolecarboxamide] yielded a pest or weed control at 40 ppm [1, 4] of 0%, a pest or weed control at 40 ppm (Phytophthora infestans [2]; [5]) of 100% and a pest or weed control at 40 ppm (Plasmopara viticola; [6]) of 100%. For the same compound, the pest or weed control at 40 ppm (Phytophthora infestans [3]; [7]) was 99%.

For `Cc1cc(C(F)(F)F)nn1CC(=O)N1CCC(n2cc(C(=O)N(C)[C@@H]3CCCc4ccccc43)cn2)CC1` [Compound 233, N-methyl-1-[1-[[5-methyl-3-(trifluoromethyl)-1H-pyrazol-1-yl]acetyl]-4-piperidinyl]-N-[(1R)-1,2,3,4-tetrahydro-1-naphthalenyl]-1H-pyrazole-4-carboxamide], the pest or weed control at 40 ppm [1, 4] was 0%, the pest or weed control at 40 ppm (Phytophthora infestans [2]; [5]) was 100% and the pest or weed control at 40 ppm (Plasmopara viticola; [6]) was 99%. For the same compound, the pest or weed control at 40 ppm (Phytophthora infestans [3]; [7]) was 99%.

Work on `CN(C(=O)c1csc(C2CCN(C(=O)Cn3nc(Cl)cc3Cl)CC2)n1)[C@@H]1CCCc2ccccc21` [Compound 238, 2-[1-[(3,5-dichloro-1H-pyrazol-1-yl)acetyl]-4-piperidinyl]-N-methyl-N-[(1R)-1,2,3,4-tetrahydro-1-naphthalenyl]-4-thiazolecarboxamide] yielded a pest or weed control at 10 ppm ([1]; Blumeria graminis, topical, 168 h, spray the day before inoculation, tested at 10 ppm, read-out: Test E disease rating (100 = 100% disease control, 0 = no disease control)) of 0%, a pest or weed control at 10 ppm (Phytophthora infestans [2]; [5]) of 100% and a pest or weed control at 10 ppm (Plasmopara viticola; Plasmopara viticola, 144 h, spray 24 h after inoculation, tested at 10 ppm, read-out: Test B disease rating (100 = 100% disease control, 0 = no disease control)) of 100%. The pest or weed control at 10 ppm (Phytophthora infestans [3]; [7]) was 99%.

Compound `CN(C(=O)c1csc(C2CCN(C(=O)Cn3nc(C(F)(F)F)cc3Cl)CC2)n1)[C@@H]1CCCc2ccccc21` [Compound 249, 2-[1-[[5-chloro-3-(trifluoromethyl)-1H-pyrazol-1-yl]acetyl]-4-piperidinyl]-N-methyl-N-[(1R)-1,2,3,4-tetrahydro-1-naphthalenyl]-4-thiazolecarboxamide] has a pest or weed control at 40 ppm [1, 4] of 0%, a pest or weed control at 40 ppm (Phytophthora infestans [2]; [5]) of 100% and a pest or weed control at 40 ppm (Plasmopara viticola; [6]) of 100%. For the same compound, the pest or weed control at 40 ppm (Phytophthora infestans [3]; [7]) was 99%.

With `Cc1cc(C(F)(F)F)nn1CC(=O)N1CCC(c2nc(C(=S)N(C)[C@@H]3CCCc4ccccc43)cs2)CC1` [Compound 289, N-methyl-2-[1-[[5-methyl-3-(trifluoromethyl)-1H-pyrazol-1-yl]acetyl]-4-piperidinyl]-N-[(1R)-1,2,3,4-tetrahydro-1-naphthalenyl]-4-thiazolecarbothioamide] the “Test E disease rating (100 = 100% disease control, 0 = no disease control)” value ([1]; sprayed the day before inoculation, 7 days at 20° C., tested at 40 ppm (*)) was 65, the “Test C disease rating (100 = 100% disease control, 0 = no disease control)” value (Phytophthora infestans [2]; sprayed the day before inoculation, tested at 40 ppm (*)) was 100 and the “Test B disease rating (100 = 100% disease control, 0 = no disease control)” value (Plasmopara viticola; sprayed 24 h after inoculation, tested at 40 ppm (*)) was 100. For the same compound, the “Test D disease rating (100 = 100% disease control, 0 = no disease control)” value (Phytophthora infestans [3]; sprayed 17 h after inoculation, tested at 40 ppm (*)) was 99.

For `Cc1cc(C(F)(F)F)nn1CC(=O)N1C=CC(c2nc(C(=O)N(C)[C@@H]3CCCc4ccccc43)cs2)CC1` (stereo partly drawn) [Compound 315, N-methyl-2-[1,2,3,4-tetrahydro-1-[[5-methyl-3-(trifluoromethyl)-1H-pyrazol-1-yl]acetyl]-4-pyridinyl]-N-[(1R)-1,2,3,4-tetrahydro-1-naphthalenyl]-4-thiazolecarboxamide], the “Test E disease rating (100 = 100% disease control, 0 = no disease control)” value ([1]; sprayed the day before inoculation, 7 days at 20° C., tested at 10 ppm (**)) was 0, the “Test C disease rating (100 = 100% disease control, 0 = no disease control)” value (Phytophthora infestans [2]; sprayed the day before inoculation, tested at 10 ppm (**)) was 100 and the “Test B disease rating (100 = 100% disease control, 0 = no disease control)” value (Plasmopara viticola; sprayed 24 h after inoculation, tested at 10 ppm (**)) was 72. For the same compound, the “Test D disease rating (100 = 100% disease control, 0 = no disease control)” value (Phytophthora infestans [3]; sprayed 17 h after inoculation, tested at 10 ppm (**)) was 88.

For `C[C@H](c1ccccc1)N(C)C(=O)c1csc(C2CCN(C(=O)Cc3cccc(F)c3F)CC2)n1` [compound 46], the “Test E disease rating (100 = 100% disease control, 0 = no disease control)” value [1, 8] was 0%, the “Test C disease rating (100 = 100% disease control, 0 = no disease control)” value (Phytophthora infestans [2]; [8]) was 0% and the “Test B disease rating (100 = 100% disease control, 0 = no disease control)” value (Plasmopara viticola; spray 24 h after inoculation, tested at 40 ppm) was 0%. For the same compound, the “Test D disease rating (100 = 100% disease control, 0 = no disease control)” value (Phytophthora infestans [3]; spray 17 h after inoculation, tested at 40 ppm) was 0%.

For `COc1ccccc1CC(=O)N1CCN(c2nc(C(=O)N(C)[C@H](C)c3ccccc3)co2)CC1` [compound 53], the “Test E disease rating (100 = 100% disease control, 0 = no disease control)” value [1, 9] was 0%, the “Test C disease rating (100 = 100% disease control, 0 = no disease control)” value (Phytophthora infestans [2]; [9]) was 100% and the “Test B disease rating (100 = 100% disease control, 0 = no disease control)” value (Plasmopara viticola; spray 24 h after inoculation, compounds without asterisk (not 40 or 10 ppm)) was 20%. For the same compound, the “Test D disease rating (100 = 100% disease control, 0 = no disease control)” value (Phytophthora infestans [3]; spray 17 h after inoculation, compounds without asterisk (not 40 or 10 ppm)) was 89%.
